Results published in patent US8309586B2, “Glucokinase activators and pharmaceutical compositions containing the same as an active ingredient” (LG Life Sciences Ltd., priority 2007, dated 2012).

test system: Glucokinase known as hexokinase IV (human GK isoform 1, pancreas form and human GK isoform 2, liver form); assay: Glucokinase enzymatic activity assay (G6PDH-coupled, NADH absorbance at 340 nm); format: biochemical; details: 5 mM glucose, 1 mM ATP, 37 nM GK, 10 min at room temperature
Description: Glucokinase known as hexokinase IV (human GK isoform 1, pancreas form and human GK isoform 2, liver form) was cloned into an expression vector pET15 fx (Novagen Co.), transformed to E. coli BL21 (DE3) (Invitrogen Co.) strain, expressed, and purified using a nickel column. Then, the glucokinase obtained from dialysis was used in the following assay.
Glucokinase assay was performed by measuring absorbance according to the conventional manner. Briefly speaking, glucokinase converts the substrate glucose to glucose-6-phosphate under certain conditions, and glucose-6-phosphate dehydrogenase irreversibly converts glucose-6-phosphate to gluconate-6-phosphate. During this procedure, NADH is formed, and its absorbance is measured to calculate the enzymatic activity.
In the measurement of the enzymatic activity, each compound was diluted by two-fold from the maximum to the minimum concentrations, and 2 μl of each solution was added to 96 well UV plate (BD bioscience). 60 μl of the first mixture (final concentrations 25 mM Hepes, 25 mM KCl, 2 mM MgCl2, 1 mM DTT) was added, and thoroughly mixed. 38 μl of the enzyme mixture (final concentrations 1 mM ATP, 1 mM NAD, 5 mM glucose, 0.85U G6PDH, 37 nM GK) was added (final volume 100 μl), and the mixture was reacted for 10 min at room temperature. The absorbance of NADH was measured at 340 nm using a UV spectrometer (Molecular Device).
The enzyme activating abilities of the compounds according to the present invention are represented as AC1.5 (the compound concentration at which the enzymatic activity is increased by 1.5 times, nM), which is in the range of 0.001 uM to 30 uM or less, preferably 0.001 uM to 10 uM, more preferably 0.001 uM to 1 uM.

| Structure (SMILES) | AC1.5 (the compound concentration at which the enzymatic activity is increased by 1.5 times) [nM] |
| --- | --- |
| CNC(=O)C[C@@H]1CSC(c2cc3cc(Cl)cc(NC4CCOCC4)c3[nH]2)=N1 [Example 82, 2-{(R)-2-[5-chloro-7-(tetrahydro-pyran-4-ylamino)-1H-indol-2-yl]-4,5-dihydro-thiazol-4-yl}-N-methyl-acetamide] | 22 |
| O=C(O)C[C@@H]1CSC(c2cc3cc(Oc4cccnc4)cc(NC4CCCC4)c3[nH]2)=N1 [Example 57, {(R)-2-[7-cyclopentylamino-5-(pyridin-3-yloxy)-1H-indol-2-yl]-4,5-dihydro-thiazol-4-yl}-acetic acid] | 21 |
| COC(=O)C[C@@H]1CSC(c2cc3cc(Oc4cccnc4)cc(NC4CCOCC4)c3[nH]2)=N1 [Example 58, {(R)-2-[5-(pyridin-3-yloxy)-7-(tetrahydro-pyran-4-ylamino)-1H-indol-2-yl]-4,5-dihydro-thiazol-4-yl}-acetic acid methyl ester] | 14 |
| OC[C@@H]1CSC(c2cc3cc(Br)cc(NC4CCOCC4)c3[nH]2)=N1 [Example 11, {(R)-2-[5-bromo-7-(tetrahydro-pyran-4-ylamino)-1H-indol-2-yl]-4,5-dihydro-thiazol-4-yl}-methanol] | 14 |
| O=C(O)CC[C@@H]1CSC(c2cc3cc(F)cc(NC4CCCC4)c3[nH]2)=N1 [Example 161, 3-[(R)-2-(7-cyclopentylamino-5-fluoro-1H-indol-2-yl)-4,5-dihydro-thiazol-4-yl]-propionic acid] | 10 |
| O=C(CO)N1CCN(CC[C@@H]2CSC(c3cc4cc(F)cc(NC5CCOCC5)c4[nH]3)=N2)CC1 [Example 140, 1-[4-(2-{(R)-2-[5-fluoro-7-(tetrahydro-pyran-4-ylamino)-1H-indol-2-yl]-4,5-dihydro-thiazol-4-yl}-ethyl)-piperazin-1-yl]-2-hydroxy-ethanone] | 52 |
| c1cc(NC2CCCC2)c2[nH]c(C3=N[C@H](CCN4CCCCC4)CS3)cc2c1 [Example 144, cyclopentyl-{2-[(R)-4-(2-piperidin-1-yl-ethyl)-4,5-dihydro-thiazol-2-yl]-1H-indol-7-yl}-amine] | 122 |
| CCOC(=O)C[C@@H]1CSC(c2cc3cc(OC)cc(NC4CCCC4)c3[nH]2)=N1 [Example 49, [(R)-2-(7-cyclopentylamino-5-methoxy-1H-indol-2-yl)-4,5-dihydro-thiazol-4-yl]-acetic acid ethyl ester] | 35 |
| O=C(O)CC[C@@H]1CSC(c2cc3cc(Br)cc(NC4CCCC4)c3[nH]2)=N1 [Example 163, 3-[(R)-2-(5-bromo-7-cyclopentylamino-1H-indol-2-yl)-4,5-dihydro-thiazol-4-yl]-propionic acid] | 5 |
| COCC[C@@H]1CSC(c2cc3cccc(NC4CCCC4)c3[nH]2)=N1 [Example 141, cyclopentyl-{2-[(R)-4-(2-methoxy-ethyl)-4,5-dihydro-thiazol-2-yl]-1H-indol-7-yl}-amine] | 24 |
| c1cc(NC2CCCC2)c2[nH]c(C3=N[C@H](Cc4nc(N5CCCCC5)no4)CS3)cc2c1 [Example 173, cyclopentyl-{2-[(R)-4-(3-piperidin-1-yl-[1,2,4]oxadiazol-5-ylmethyl)-4,5-dihydro-thiazol-2-yl]-1H-indol-7-yl}-amine] | 114 |
| OC[C@@H]1CSC(c2cc3cc(Cl)cc(NC4CCOCC4)c3[nH]2)=N1 [Example 8, {(R)-2-[5-chloro-7-(tetrahydro-pyran-4-ylamino)-1H-indol-2-yl]-4,5-dihydro-thiazol-4-yl}-methanol] | 32 |

Second part, the compound after the results:

| AC1.5 (the compound concentration at which the enzymatic activity is increased by 1.5 times) [nM] | Structure (SMILES) |
| --- | --- |
| 9 | COc1cc(NC2CCCC2)c2[nH]c(C3=N[C@H](CC(=O)O)CS3)cc2c1 [Example 48, [(R)-2-(7-cyclopentylamino-5-methoxy-1H-indol-2-yl)-4,5-dihydro-thiazol-4-yl]-acetic acid] |
| 64 | c1cc(NC2CCCC2)c2[nH]c(C3=N[C@H](CN4CCOCC4)CS3)cc2c1 [Example 16, cyclopentyl-[2-((R)-4-morpholin-4-ylmethyl-4,5-dihydro-thiazol-2-yl)-1H-indol-7-yl]-amine] |
| 6 | CC(=O)N1CCN(CC[C@@H]2CSC(c3cc4cc(Cl)cc(NC5CCCC5)c4[nH]3)=N2)CC1 [Example 97, 1-(4-{2-[(R)-2-(5-chloro-7-cyclopentylamino-1H-indol-2-yl)-4,5-dihydro-thiazol-4-yl]-ethyl}-piperazin-1-yl)-ethanone] |
| 32 | CS(=O)(=O)Cc1cc(NC2CCCC2)c2[nH]c(C3=N[C@H](CCO)CS3)cc2c1 [Example 70, 2-[(R)-2-(7-cyclopentylamino-5-methanesulfonylmethyl-1H-indol-2-yl)-4,5-dihydro-thiazol-4-yl]-ethanol] |
| 112 | CNC(=O)C[C@@H]1CSC(c2cc3cccc(NC4CCOCC4)c3[nH]2)=N1 [Example 92, N-methyl-2-{(R)-2-[7-(tetrahydro-pyran-4-ylamino)-1H-indol-2-yl]-4,5-dihydro-thiazol-4-yl}-acetamide] |
| 12 | CCOC(=O)CC[C@@H]1CSC(c2cc3cc(F)cc(NC4CCCC4)c3[nH]2)=N1 [Example 160, 3-[(R)-2-(7-cyclopentylamino-5-fluoro-1H-indol-2-yl)-4,5-dihydro-thiazol-4-yl]-propionic acid ethyl ester] |
| 21 | O=C(C[C@@H]1CSC(c2cc3cc(Cl)cc(NC4CCCC4)c3[nH]2)=N1)N1CCC(O)C1 (stereo partly drawn) [Example 80, 2-[(R)-2-(5-chloro-7-cyclopentylamino-1H-indol-2-yl)-4,5-dihydro-thiazol-4-yl]-1-(3-hydroxy-pyrrolidin-1-yl)-ethanone] |
| 19 | COc1cc(NC2CCCC2)c2[nH]c(C3=N[C@H](CC(=O)N4CCOCC4)CS3)cc2c1 [Example 88, 2-[(R)-2-(7-cyclopentylamino-5-methoxy-1H-indol-2-yl)-4,5-dihydro-thiazol-4-yl]-1-morpholin-4-yl-ethanone] |
| 14 | O=C(O)CC[C@@H]1CSC(c2cc3cc(Cl)cc(NC4CCOCC4)c3[nH]2)=N1 [Example 151, 3-{(R)-2-[5-chloro-7-(tetrahydro-pyran-4-ylamino)-1H-indol-2-yl]-4,5-dihydro-thiazol-4-yl}-propionic acid] |
| 31 | OC[C@@H]1CSC(c2cc3cc(F)cc(NC4CCOCC4)c3[nH]2)=N1 [Example 6, {(R)-2-[5-fluoro-7-(tetrahydro-pyran-4-ylamino)-1H-indol-2-yl]-4,5-dihydro-thiazol-4-yl}-methanol] |
| 7 | O=C1CN(CC[C@@H]2CSC(c3cc4cc(Cl)cc(NC5CCCC5)c4[nH]3)=N2)CCN1 [Example 102] |
| 7 | OC[C@@H]1CSC(c2cc3cc(Cl)cc(NC4CCCC4)c3[nH]2)=N1 [Example 7, [(R)-2-(5-chloro-7-cyclopentylamino-1H-indol-2-yl)-4,5-dihydro-thiazol-4-yl]-methanol] |
| 8 | CCOC(=O)C[C@@H]1CSC(c2cc3cc(Cl)cc(NC4CCCC4)c3[nH]2)=N1 [Example 28, [(R)-2-(5-chloro-7-cyclopentylamino-1H-indol-2-yl)-4,5-dihydro-thiazol-4-yl]acetic acid ethyl ester] |
| 21 | CCOC(=O)CC[C@@H]1CSC(c2cc3cc(Br)cc(NC4CCCC4)c3[nH]2)=N1 [Example 162, 3-[(R)-2-(5-bromo-7-cyclopentylamino-1H-indol-2-yl)-4,5-dihydro-thiazol-4-yl]-propionic acid ethyl ester] |
| 178 | c1ccc(Oc2cccc3cc(C4=N[C@H](CCN5CCOCC5)CS4)[nH]c23)cc1 [Example 176, 2-[(R)-4-(2-morpholin-4-yl-ethyl)-4,5-dihydro-thiazol-2-yl]-7-phenoxy-1H-indole] |
| 6 | OC[C@@H]1CSC(c2cc3cc(Br)cc(NC4CCCC4)c3[nH]2)=N1 [Example 10, [(R)-2-(5-bromo-7-cyclopentylamino-1H-indol-2-yl)-4,5-dihydro-thiazol-4-yl]-methanol] |
